Values joined by “and” are separate entries in the source; they are usually repeats but may differ in a detail not shown here. Equal entries are not always repeated. ± gives the expanded uncertainty stated by the source.
Experiments:
[1] = for vapor or sublimation pressure: Inclined piston gauge
[2] = Molar enthalpy of transition or fusion
[3] = molar heat capacity at saturation pressure

CC(C)(C)c1ccc(C(C)(C)C)cc1 [1,4-bis(1,1-dimethylethyl)benzene]
Details | Triple point temperature [K] | molar heat capacity | vapor or sublimation pressure [kPa]
[1], 319.99 K, Crystal 2 | – | – | 0.0214 ± 0.001
[1], 329.99 K, Crystal 2 | – | – | 0.0543 ± 0.0011
[1], 339.98 K, Crystal 2 | – | – | 0.1315 ± 0.0012
[1], 349.98 K, Crystal 2 | – | – | 0.2996 ± 0.0013
[1], 354.98 K, Liquid | – | – | 0.4031 ± 0.0015
[1], 359.98 K, Liquid | – | – | 0.5294 ± 0.0017
[1], 369.98 K, Liquid | – | – | 0.8897 ± 0.0021
[1], 379.97 K, Liquid | – | – | 1.445 ± 0.0028
[1], 387.02 K, Liquid | – | – | 1.996 ± 0.0034
[1], 389.97 K, Liquid | – | – | 2.276 ± 0.0039
[1], 394.97 K, Liquid | – | – | 2.825 ± 0.0044
[1], Crystal, Adiabatic calorimetry | 350.78 ± 0.04 | – | –
[3], 5 K, Crystal 2 | – | 0.22 ± 0.008 J/K/mol | –
[3], 5.533 K, Crystal 2 | – | 0.3 ± 0.008 J/K/mol | –
[3], 6.588 K, Crystal 2 | – | 0.58 ± 0.008 J/K/mol | –
[3], 7.503 K, Crystal 2 | – | 0.948 ± 0.02 J/K/mol | –
[3], 8.461 K, Crystal 2 | – | 1.45 ± 0.02 J/K/mol | –
[3], 9.448 K, Crystal 2 | – | 2.15 ± 0.02 J/K/mol | –
[3], 10 K, Crystal 2 | – | 2.66 ± 0.03 J/K/mol | –
[3], 10.47 K, Crystal 2 | – | 3.13 ± 0.02 J/K/mol | –
[3], 11.6 K, Crystal 2 | – | 4.28 ± 0.03 J/K/mol | –
[3], 12.86 K, Crystal 2 | – | 5.92 ± 0.04 J/K/mol | –
[3], 14.25 K, Crystal 2 | – | 7.97 ± 0.04 J/K/mol | –
[3], 15.79 K, Crystal 2 | – | 10.43 ± 0.05 J/K/mol | –
[3], 17.5 K, Crystal 2 | – | 13.43 ± 0.06 J/K/mol | –
[3], 19.42 K, Crystal 2 | – | 16.89 ± 0.07 J/K/mol | –
[3], 20 K, Crystal 2 | – | 17.93 ± 0.07 J/K/mol | –
[3], 21.58 K, Crystal 2 | – | 20.82 ± 0.07 J/K/mol | –
[3], 24 K, Crystal 2 | – | 25.18 ± 0.07 J/K/mol | –
[3], 26.71 K, Crystal 2 | – | 29.9 ± 0.07 J/K/mol | –
[3], 29.7 K, Crystal 2 | – | 34.78 ± 0.07 J/K/mol | –
[3], 30 K, Crystal 2 | – | 35.25 ± 0.07 J/K/mol | –
[3], 33.02 K, Crystal 2 | – | 39.81 ± 0.07 J/K/mol | –
[3], 36.72 K, Crystal 2 | – | 44.96 ± 0.07 J/K/mol | –
[3], 40 K, Crystal 2 | – | 49.12 ± 0.07 J/K/mol | –
[3], 40.81 K, Crystal 2 | – | 50.11 ± 0.07 J/K/mol | –
[3], 45.31 K, Crystal 2 | – | 55.45 ± 0.083 J/K/mol | –
[3], 50 K, Crystal 2 | – | 60.83 ± 0.083 J/K/mol | –
[3], 50.28 K, Crystal 2 | – | 61.18 ± 0.083 J/K/mol | –
[3], 53.35 K, Crystal 2 | – | 64.41 ± 0.083 J/K/mol | –
[3], 55.8 K, Crystal 2 | – | 67 ± 0.091 J/K/mol | –
[3], 58.24 K, Crystal 2 | – | 69.81 ± 0.091 J/K/mol | –
[3], 60 K, Crystal 2 | – | 71.59 ± 0.091 J/K/mol | –
[3], 63.85 K, Crystal 2 | – | 75.62 ± 0.1 J/K/mol | –
[3], 70 K, Crystal 2 | – | 82.39 ± 0.11 J/K/mol | –
[3], 70.16 K, Crystal 2 | – | 82.56 ± 0.11 J/K/mol | –
[3], 77.05 K, Crystal 2 | – | 90.04 ± 0.12 J/K/mol | –
[3], 80 K, Crystal 2 | – | 93.26 ± 0.12 J/K/mol | –
[3], 84.6 K, Crystal 2 | – | 98.29 ± 0.12 J/K/mol | –
[3], 87.33 K, Crystal 2 | – | 101.34 ± 0.12 J/K/mol | –
[3], 90 K, Crystal 2 | – | 104.26 ± 0.15 J/K/mol | –
[3], 92.81 K, Crystal 2 | – | 107.36 ± 0.16 J/K/mol | –
[3], 95.36 K, Crystal 2 | – | 110.2 ± 0.16 J/K/mol | –
[3], 100 K, Crystal 2 | – | 115.33 ± 0.16 J/K/mol | –
[3], 101.84 K, Crystal 2 | – | 117.33 ± 0.16 J/K/mol | –
[3], 104.42 K, Crystal 2 | – | 120.11 ± 0.16 J/K/mol | –
[3], 113.87 K, Crystal 2 | – | 130.45 ± 0.17 J/K/mol | –
[3], 120 K, Crystal 2 | – | 137.01 ± 0.17 J/K/mol | –
[3], 124.55 K, Crystal 2 | – | 141.81 ± 0.17 J/K/mol | –
[3], 136.29 K, Crystal 2 | – | 154.01 ± 0.17 J/K/mol | –
[3], 140 K, Crystal 2 | – | 157.79 ± 0.18 J/K/mol | –
[3], 148.14 K, Crystal 2 | – | 166.03 ± 0.18 J/K/mol | –
[3], 160 K, Crystal 2 | – | 177.95 ± 0.19 J/K/mol | –
[3], 160.18 K, Crystal 2 | – | 178.15 ± 0.19 J/K/mol | –
[3], 172.27 K, Crystal 2 | – | 190.18 ± 0.2 J/K/mol | –
[3], 180 K, Crystal 2 | – | 197.9 ± 0.2 J/K/mol | –
[3], 184.35 K, Crystal 2 | – | 202.24 ± 0.2 J/K/mol | –
[3], 196.47 K, Crystal 2 | – | 214.21 ± 0.21 J/K/mol | –
[3], 200 K, Crystal 2 | – | 217.74 ± 0.21 J/K/mol | –
[3], 208.62 K, Crystal 2 | – | 226.43 ± 0.22 J/K/mol | –
[3], 220 K, Crystal 2 | – | 238.04 ± 0.22 J/K/mol | –
[3], 220.76 K, Crystal 2 | – | 238.82 ± 0.22 J/K/mol | –
[3], 232.87 K, Crystal 2 | – | 251.39 ± 0.22 J/K/mol | –
[3], 240 K, Crystal 2 | – | 258.93 ± 0.23 J/K/mol | –
[3], 246.43 K, Crystal 2 | – | 265.79 ± 0.23 J/K/mol | –
[3], 260 K, Crystal 2 | – | 280.44 ± 0.24 J/K/mol | –
[3], 261.46 K, Crystal 2 | – | 282.02 ± 0.24 J/K/mol | –
[3], 276.43 K, Crystal 2 | – | 298.62 ± 0.25 J/K/mol | –
[3], 280 K, Crystal 2 | – | 302.57 ± 0.25 J/K/mol | –
[3], 284.66 K, Crystal 2 | – | 307.57 ± 0.26 J/K/mol | –
[3], 291.28 K, Crystal 2 | – | 315.23 ± 0.26 J/K/mol | –
[3], 293.84 K, Crystal 2 | – | 318.28 ± 0.26 J/K/mol | –
[3], 298.15 K, Crystal 2 | – | 323.15 ± 0.27 J/K/mol | –
[3], 298.15 K, Liquid | – | 347.84 ± 0.27 J/K/mol | –
[3], 300 K, Crystal 2 | – | 325.26 ± 0.27 J/K/mol | –
[3], 300 K, Liquid | – | 349.41 ± 0.27 J/K/mol | –
[3], 302.67 K, Crystal 2 | – | 328.3 ± 0.27 J/K/mol | –
[3], 304.12 K, Crystal 2 | – | 330 ± 0.27 J/K/mol | –
[3], 305.99 K, Crystal 2 | – | 332.26 ± 0.27 J/K/mol | –
[3], 310 K, Liquid | – | 357.8 ± 0.28 J/K/mol | –
[3], 315.02 K, Crystal 2 | – | 342.89 ± 0.27 J/K/mol | –
[3], 320 K, Crystal 2 | – | 348.63 ± 0.27 J/K/mol | –
[3], 320 K, Liquid | – | 366 ± 0.28 J/K/mol | –
[3], 327.23 K, Crystal 2 | – | 357.27 ± 0.28 J/K/mol | –
[3], 330 K, Liquid | – | 374.03 ± 0.29 J/K/mol | –
[3], 339.27 K, Crystal 2 | – | 372.29 ± 0.29 J/K/mol | –
[3], 340 K, Crystal 2 | – | 373.15 ± 0.29 J/K/mol | –
[3], 340 K, Liquid | – | 381.92 ± 0.29 J/K/mol | –
[3], 340.54 K, Crystal 2 | – | 373.89 ± 0.29 J/K/mol | –
[3], 350 K, Liquid | – | 389.72 ± 0.3 J/K/mol | –
[3], 350.73 K, Crystal 1 | – | 375.72 ± 0.29 J/K/mol | –
[3], 350.73 K, Crystal 2 | – | 386.83 ± 0.29 J/K/mol | –
[3], 350.78 K, Crystal 1 | – | 375.79 ± 0.29 J/K/mol | –
[3], 350.78 K, Liquid | – | 390.31 ± 0.3 J/K/mol | –
[3], 354.93 K, Liquid | – | 393.57 ± 0.3 J/K/mol | –
[3], 356.83 K, Liquid | – | 395.01 ± 0.3 J/K/mol | –
[3], 358.46 K, Liquid | – | 396.37 ± 0.3 J/K/mol | –
[3], 358.5 K, Liquid | – | 396.23 ± 0.3 J/K/mol and 396.2 ± 0.3 J/K/mol | –
[3], 360 K, Liquid | – | 397.37 ± 0.3 J/K/mol | –
[3], 363.7 K, Liquid | – | 400.3 ± 0.3 J/K/mol | –
[3], 366.52 K, Liquid | – | 402.21 ± 0.3 J/K/mol | –
[3], 374.01 K, Liquid | – | 407.95 ± 0.31 J/K/mol | –
[3], 380 K, Liquid | – | 412.36 ± 0.31 J/K/mol | –
[3], 380.16 K, Liquid | – | 412.53 ± 0.31 J/K/mol | –
[3], 395.48 K, Liquid | – | 423.8 ± 0.32 J/K/mol | –
[3], 398.2 K, Liquid | – | 425.82 ± 0.32 J/K/mol | –
[3], 400 K, Liquid | – | 427.09 ± 0.32 J/K/mol | –
[3], 416.83 K, Liquid | – | 439.37 ± 0.32 J/K/mol | –
[3], 417.39 K, Liquid | – | 439.74 ± 0.32 J/K/mol | –
[3], 420 K, Liquid | – | 441.61 ± 0.32 J/K/mol | –
[3], 433.85 K, Liquid | – | 451.62 ± 0.32 J/K/mol | –
[3], 435.24 K, Liquid | – | 452.59 ± 0.32 J/K/mol | –
[3], 440 K, Liquid | – | 456.08 ± 0.32 J/K/mol | –

Details | Molar enthalpy of transition or fusion, [2] [kcal/mol] | Triple point temperature, [1] [K]
Crystal 1 | 1.9627 ± 0.0012 | –
Crystal 2 | 3.4321 ± 0.00239 | 350.73 ± 0.01
